From ChEMBL document CHEMBL4806963, “Antagonistic peptides for frizzled-1 and frizzled-2” (2013)
The source made the active and inactive calls. The calls are words filed in the database; no cut-off is given here. Where a SMILES comes first, the peptide text is derived from it.

Assays:
[1] = molecular target: Frizzled-1 (Rattus norvegicus) (UniProt Q08463); test: Antagonist activity at Wnt3a-stimulated rat frizzled-1 expressed in CHO cells up to 10 uM incubated for 24 hrs by luciferase reporter gene assay; type: cell-based; conditions: dose microM <=10, time 24.0 hrs
Chain of Frizzled-1 (Rattus norvegicus) (Q08463 whole entry): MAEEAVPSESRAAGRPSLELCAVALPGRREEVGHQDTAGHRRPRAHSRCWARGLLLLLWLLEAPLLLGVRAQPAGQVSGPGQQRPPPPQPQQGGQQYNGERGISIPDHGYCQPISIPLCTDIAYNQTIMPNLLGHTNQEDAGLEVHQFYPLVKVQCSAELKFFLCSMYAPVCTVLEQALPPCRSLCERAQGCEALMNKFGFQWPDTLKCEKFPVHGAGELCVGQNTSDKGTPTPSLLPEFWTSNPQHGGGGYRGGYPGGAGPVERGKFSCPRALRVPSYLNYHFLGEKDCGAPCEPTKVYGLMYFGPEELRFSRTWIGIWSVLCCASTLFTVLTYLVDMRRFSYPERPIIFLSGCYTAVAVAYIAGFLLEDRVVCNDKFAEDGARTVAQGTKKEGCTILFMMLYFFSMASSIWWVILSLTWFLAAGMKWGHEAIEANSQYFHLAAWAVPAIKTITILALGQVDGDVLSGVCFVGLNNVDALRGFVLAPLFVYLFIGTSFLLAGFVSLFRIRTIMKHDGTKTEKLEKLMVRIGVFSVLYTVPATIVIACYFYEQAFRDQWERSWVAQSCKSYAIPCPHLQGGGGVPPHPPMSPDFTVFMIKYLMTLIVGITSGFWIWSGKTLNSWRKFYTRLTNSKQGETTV

[2] = molecular target: Frizzled-2 (Rattus norvegicus) (UniProt Q08464); test: Antagonist activity at Wnt3a-stimulated rat frizzled-2 expressed in […] cells up to 10 uM incubated for 24 hrs by luciferase reporter gene assay; type: cell-based; conditions: dose microM <=10, time 24.0 hrs
Chain of Frizzled-2 (Rattus norvegicus) (Q08464 29-570 limits assumed): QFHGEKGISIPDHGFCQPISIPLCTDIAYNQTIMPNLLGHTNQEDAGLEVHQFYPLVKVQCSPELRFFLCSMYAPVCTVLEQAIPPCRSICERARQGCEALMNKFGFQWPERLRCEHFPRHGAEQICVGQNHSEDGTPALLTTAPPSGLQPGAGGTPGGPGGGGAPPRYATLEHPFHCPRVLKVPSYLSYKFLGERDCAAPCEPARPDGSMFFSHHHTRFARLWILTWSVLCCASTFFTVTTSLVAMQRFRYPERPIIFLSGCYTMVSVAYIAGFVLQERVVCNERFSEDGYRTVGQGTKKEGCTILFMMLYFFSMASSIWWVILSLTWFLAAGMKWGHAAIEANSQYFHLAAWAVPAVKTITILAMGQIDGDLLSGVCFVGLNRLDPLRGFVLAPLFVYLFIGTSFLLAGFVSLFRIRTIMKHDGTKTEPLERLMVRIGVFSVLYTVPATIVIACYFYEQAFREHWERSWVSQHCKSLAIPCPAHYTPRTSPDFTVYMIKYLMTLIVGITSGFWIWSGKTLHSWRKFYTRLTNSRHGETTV

[3] = molecular target: Frizzled-1 (Rattus norvegicus) (UniProt Q08463); test: Antagonist activity at Wnt3a-stimulated rat frizzled-1 expressed in African green monkey COS7 cells up to 10 uM incubated for 24 hrs by luciferase reporter gene assay; type: cell-based; conditions: dose microM <=10, time 24.0 hrs
[4] = molecular target: Frizzled-2 (Rattus norvegicus) (UniProt Q08464); test: Antagonist activity at Wnt3a-stimulated rat frizzled-2 expressed in African green monkey COS7 cells up to 10 uM incubated for 24 hrs by luciferase reporter gene assay; type: cell-based; conditions: dose microM <=10, time 24.0 hrs
[5] = molecular target: Frizzled-1 (Homo sapiens) (UniProt Q9UP38); test: Antagonist activity at Wnt3a-stimulaed frizzled-1 (unknown origin) expressed in human HEK293superTOP flash cells at 1 nM incubated for 24 hrs by luciferase reporter gene assay (reference value: 0%); type: functional, cell-based
Chain of Frizzled-1 (Homo sapiens) (Q9UP38 70-647 limits assumed): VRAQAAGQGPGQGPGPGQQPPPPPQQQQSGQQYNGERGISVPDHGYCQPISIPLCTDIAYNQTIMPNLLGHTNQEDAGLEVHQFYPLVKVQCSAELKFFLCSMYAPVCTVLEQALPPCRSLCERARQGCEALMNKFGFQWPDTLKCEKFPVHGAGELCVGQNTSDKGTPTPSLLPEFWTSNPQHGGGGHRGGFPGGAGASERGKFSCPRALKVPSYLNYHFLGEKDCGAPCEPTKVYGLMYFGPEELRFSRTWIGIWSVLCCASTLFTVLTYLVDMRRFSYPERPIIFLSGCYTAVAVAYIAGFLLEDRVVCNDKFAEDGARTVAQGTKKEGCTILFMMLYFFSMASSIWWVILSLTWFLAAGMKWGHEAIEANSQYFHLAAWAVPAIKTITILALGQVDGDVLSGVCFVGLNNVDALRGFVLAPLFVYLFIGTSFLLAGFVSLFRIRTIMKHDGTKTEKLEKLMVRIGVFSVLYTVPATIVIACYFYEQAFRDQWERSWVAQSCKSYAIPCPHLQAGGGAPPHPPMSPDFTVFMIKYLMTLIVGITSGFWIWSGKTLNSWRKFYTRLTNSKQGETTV

[6] = molecular target: Frizzled-2 (Homo sapiens) (UniProt Q14332); test: Antagonist activity at Wnt3a-stimulaed frizzled-2 (unknown origin) expressed in human HEK293superTOP flash cells at 1 nM incubated for 24 hrs by luciferase reporter gene assay (reference value: 0%); type: functional, cell-based
Chain of Frizzled-2 (Homo sapiens) (Q14332 24-565 limits assumed): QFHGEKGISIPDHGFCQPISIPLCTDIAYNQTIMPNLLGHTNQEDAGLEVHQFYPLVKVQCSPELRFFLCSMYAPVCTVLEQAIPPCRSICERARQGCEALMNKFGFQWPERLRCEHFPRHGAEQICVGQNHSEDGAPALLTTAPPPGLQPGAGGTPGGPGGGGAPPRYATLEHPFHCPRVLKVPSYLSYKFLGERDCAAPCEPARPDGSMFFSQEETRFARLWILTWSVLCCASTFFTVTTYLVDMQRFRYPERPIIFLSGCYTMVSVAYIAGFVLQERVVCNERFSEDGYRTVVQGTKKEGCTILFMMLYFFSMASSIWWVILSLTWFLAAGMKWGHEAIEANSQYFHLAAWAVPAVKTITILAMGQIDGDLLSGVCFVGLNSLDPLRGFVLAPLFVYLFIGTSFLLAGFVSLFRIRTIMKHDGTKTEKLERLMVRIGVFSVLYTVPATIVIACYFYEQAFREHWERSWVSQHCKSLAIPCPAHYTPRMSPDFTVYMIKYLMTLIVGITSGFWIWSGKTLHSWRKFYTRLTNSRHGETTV

[7] = molecular target: Frizzled-2 (Homo sapiens) (UniProt Q14332); test: Antagonist activity at Wnt3a-stimulated frizzled-2 (unknown origin) expressed in human HEK293superTOP flash cells at 10 nM incubated for 24 hrs by luciferase reporter gene assay; type: functional, cell-based; conditions: HEK293
[8] = molecular target: Frizzled-1 (Homo sapiens) (UniProt Q9UP38); test: Antagonist activity at Wnt3a-stimulated frizzled-1 (unknown origin) expressed in human HEK293superTOP flash cells at 10 nM incubated for 24 hrs by luciferase reporter gene assay; type: functional, cell-based; conditions: HEK293

inhibition [1] | inhibition [2] | inhibition [3] | inhibition [4] | inhibition ([5]; HEK293) [%] | inhibition ([6]; HEK293) [%] | inhibition [7] | inhibition [8] | inhibition ([5]; HEK293, filed as antagonist) [%] | inhibition ([6]; HEK293, filed as antagonist) [%] | SMILES
inactive | inactive | inactive | inactive | 11.2 | 17.5 | inactive | inactive | – | – | CSCC[C@H](NC(=O)[C@H](C)NC(=O)[C@H](CCC(=O)O)NC(=O)[C@H](CO)NC(=O)[C@H](C)NC(=O)[C@H](CCCCN)NC(=O)[C@H](CC(N)=O)NC(=O)[C@H](CS)NC(C)=O)C(=O)N[C@@H](C)C(=O)NCC(=O)N[C@@H](CS)C(=O)N[C@@H](CCC(=O)O)C(=O)N[C@@H](CC(C)C)C(N)=O (Ac-CNKASEAMAGCEL-NH2)
inactive | inactive | inactive | inactive | – | – | inactive | inactive | 74.3 | 87.3 | CSCC[C@H](NC(=O)CNC(=O)[C@H](CCC(=O)O)NC(=O)[C@H](C)NC(=O)[C@@H](NC(=O)[C@H](CCCCN)NC(=O)[C@H](CC(N)=O)NC(=O)[C@H](CS)NC(C)=O)[C@@H](C)O)C(=O)N[C@@H](CC(=O)O)C(=O)NCC(=O)N[C@@H](CS)C(=O)N[C@@H](CCC(=O)O)C(=O)N[C@@H](CC(C)C)C(N)=O (Ac-CNKTAEGMDGCEL-NH2)
inactive | inactive | inactive | inactive | – | – | inactive | inactive | 68 | 79.5 | CSCC[C@H](NC(=O)CNC(=O)[C@H](CCC(=O)O)NC(=O)[C@H](CO)NC(=O)[C@@H](NC(=O)[C@H](CCCCN)NC(=O)[C@H](C)NC(=O)[C@H](CS)NC(C)=O)[C@@H](C)O)C(=O)N[C@@H](CC(=O)O)C(=O)NCC(=O)N[C@@H](CS)C(=O)N[C@@H](CCC(=O)O)C(=O)N[C@@H](CC(C)C)C(N)=O (Ac-CAKTSEGMDGCEL-NH2)
inactive | inactive | inactive | inactive | – | – | inactive | inactive | 45.3 | 62.4 | CC[C@H](C)[C@H](NC(=O)CNC(=O)[C@H](Cc1cnc[nH]1)NC(=O)[C@H](CO)NC(=O)[C@H](CO)NC(=O)[C@@H](NC(=O)[C@H](CC(N)=O)NC(=O)[C@@H](N)CS)C(C)C)C(=O)N[C@@H](CC(=O)O)C(=O)NCC(=O)N[C@@H](CS)C(=O)N[C@@H](CC(=O)O)C(=O)N[C@@H](CC(C)C)C(=O)O (H-CNVSSHGIDGCDL-OH)
inactive | inactive | inactive | inactive | – | – | inactive | inactive | 40.5 | 60.5 | CSCC[C@H](NC(=O)CNC(=O)[C@H](CCC(=O)O)NC(=O)[C@H](CO)NC(=O)[C@@H](NC(=O)[C@H](CCCCN)NC(=O)[C@H](CC(N)=O)NC(=O)[C@H](CS)NC(C)=O)[C@@H](C)O)C(=O)N[C@@H](C)C(=O)NCC(=O)N[C@@H](CS)C(=O)N[C@@H](CCC(=O)O)C(=O)N[C@@H](CC(C)C)C(N)=O (Ac-CNKTSEGMAGCEL-NH2)
inactive | inactive | inactive | inactive | – | – | inactive | inactive | 69.9 | 83.3 | CSCC[C@H](NC(=O)CNC(=O)[C@H](CCC(=O)O)NC(=O)[C@H](CO)NC(=O)[C@@H](NC(=O)[C@H](CCCCN)NC(=O)[C@H](CC(N)=O)NC(=O)[C@H](CS)NC(C)=O)[C@@H](C)O)C(=O)N[C@@H](CC(=O)O)C(=O)N[C@@H](C)C(=O)N[C@@H](CS)C(=O)N[C@@H](CCC(=O)O)C(=O)N[C@@H](CC(C)C)C(N)=O (Ac-CNKTSEGMDACEL-NH2)
